In assay [1] the target is mTORC1 (mTOR/GbL/Raptor) (Homo sapiens, UniProt P42345). Kind of assay: mTOR/GbL/Raptor (mTORC1) ELISA Assay. The format is biochemical. Conditions: 0.2 nM mTORC1, 10 μM ATP, 50 nM NHis-tagged 4E-BP1; phosphorylation of 4E-BP1; read-out: IC50. In short, it runs like this: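 Detection used Ni-chelate capture of His-tagged 4E-BP1, then anti-phospho-4E-BP1 and HRP anti-IgG with luminescent ELISA substrate. Reactions ran 120 min at ambient temperature with 0.2 nM mTORC1, 10 μM ATP, 50 nM 4E-BP1, 10 mM MnCl2, pH 7.2 Hepes.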

In assay [2] the target is PI3Kα (Homo sapiens, UniProt P42336). Nature of the assay: PI3K Biochemical Assays (ATP consumption, luciferase-luciferin chemiluminescence). The note with it: PI3Kα 1.5 nM, ATP 1 μM, PIP2 10 μM; percent of ATP consumed. Put shortly: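 Enzyme (1.5 nM), PIP2 substrate (10 μM) and ATP (1 μM) react about 2 h at room temperature in Tris buffer pH 7.5 with MgCl2, EGTA, DTT and CHAPS. Remaining ATP detected by Kinase-Glo luminescence; total consumption limited to 40-60%.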
PI3Kα, sequence (P42336 whole entry): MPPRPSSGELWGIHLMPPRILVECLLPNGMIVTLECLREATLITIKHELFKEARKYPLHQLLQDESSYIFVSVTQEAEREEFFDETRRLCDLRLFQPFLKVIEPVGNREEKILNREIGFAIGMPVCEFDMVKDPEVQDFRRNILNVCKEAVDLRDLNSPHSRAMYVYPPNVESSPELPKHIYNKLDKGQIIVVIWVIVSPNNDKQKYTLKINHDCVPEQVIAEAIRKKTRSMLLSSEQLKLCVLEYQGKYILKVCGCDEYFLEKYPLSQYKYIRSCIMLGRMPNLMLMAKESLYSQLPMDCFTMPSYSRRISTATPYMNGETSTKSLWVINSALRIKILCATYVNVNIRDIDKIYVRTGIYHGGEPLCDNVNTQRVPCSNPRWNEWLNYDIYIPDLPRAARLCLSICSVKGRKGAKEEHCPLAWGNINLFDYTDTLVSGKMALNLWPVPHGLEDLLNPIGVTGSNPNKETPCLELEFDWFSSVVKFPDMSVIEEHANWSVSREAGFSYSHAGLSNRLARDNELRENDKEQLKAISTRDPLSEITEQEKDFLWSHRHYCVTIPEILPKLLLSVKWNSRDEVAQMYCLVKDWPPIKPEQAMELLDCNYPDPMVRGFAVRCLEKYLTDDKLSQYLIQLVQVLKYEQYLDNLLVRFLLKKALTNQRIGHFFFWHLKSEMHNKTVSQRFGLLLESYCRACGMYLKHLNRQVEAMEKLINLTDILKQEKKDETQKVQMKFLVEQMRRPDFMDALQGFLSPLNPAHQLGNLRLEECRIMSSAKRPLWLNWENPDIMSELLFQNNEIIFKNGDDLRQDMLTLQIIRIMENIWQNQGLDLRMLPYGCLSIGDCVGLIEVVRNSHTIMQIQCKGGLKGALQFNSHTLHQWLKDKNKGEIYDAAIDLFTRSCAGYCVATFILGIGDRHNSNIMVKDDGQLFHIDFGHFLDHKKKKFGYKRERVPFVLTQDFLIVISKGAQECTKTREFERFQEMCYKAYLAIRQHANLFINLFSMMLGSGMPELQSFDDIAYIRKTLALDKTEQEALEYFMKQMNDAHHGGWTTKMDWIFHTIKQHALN
PI3Kα, sequence (P27986 whole entry partner): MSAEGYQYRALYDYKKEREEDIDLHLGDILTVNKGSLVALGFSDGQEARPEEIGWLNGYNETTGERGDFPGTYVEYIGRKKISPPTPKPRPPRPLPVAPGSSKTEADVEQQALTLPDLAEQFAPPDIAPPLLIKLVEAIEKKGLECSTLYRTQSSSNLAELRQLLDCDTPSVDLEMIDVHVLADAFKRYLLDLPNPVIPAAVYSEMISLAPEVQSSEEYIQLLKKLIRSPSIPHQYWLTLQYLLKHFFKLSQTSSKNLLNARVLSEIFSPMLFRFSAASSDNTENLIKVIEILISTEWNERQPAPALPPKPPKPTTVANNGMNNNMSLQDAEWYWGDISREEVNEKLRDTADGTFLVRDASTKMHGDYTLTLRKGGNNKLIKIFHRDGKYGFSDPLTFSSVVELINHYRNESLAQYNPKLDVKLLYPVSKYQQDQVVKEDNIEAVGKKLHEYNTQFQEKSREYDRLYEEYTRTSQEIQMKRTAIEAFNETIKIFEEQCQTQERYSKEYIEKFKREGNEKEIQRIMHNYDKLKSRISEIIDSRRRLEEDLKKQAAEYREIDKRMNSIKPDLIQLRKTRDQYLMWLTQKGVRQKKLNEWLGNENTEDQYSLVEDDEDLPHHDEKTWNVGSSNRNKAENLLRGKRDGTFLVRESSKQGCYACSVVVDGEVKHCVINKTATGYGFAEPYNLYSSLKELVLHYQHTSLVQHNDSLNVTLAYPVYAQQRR

The source of these data is patent publication US8637499B2, “Benzoxazepines as inhibitors of PI3K/mTOR and methods of their use and manufacture” (Exelixis, Inc., priority 2009, dated 2014).

pIC50: −log10 of the molar value.

Take `Cc1nc2ccc(-c3ccc4c(c3)CN(C(=O)N3CCC5CCCCC5C3)CCO4)cc2[nH]1` (centres unmarked) [Compound 156, 7-(2-methyl-1H-benzimidazol-6-yl)-4-(octahydroisoquinolin-2(1H)-ylcarbonyl)-2,3,4,5-tetrahydro-1,4-benzoxazepine]: the pIC50 was 6.60 to 7.30 in assay [1] and 6.30 to 6.70 in assay [2].
In the same order, the values of `Cc1nc2ccc(-c3ccc4c(c3)CN(C(=O)N3CC=C(c5ccccc5)CC3)CCO4)cc2[nH]1` [Compound 157, 7-(2-methyl-1H-benzimidazol-6-yl)-4-[(4-phenyl-3,6-dihydropyridin-1(2H)-yl)carbonyl]-2,3,4,5-tetrahydro-1,4-benzoxazepine] are 6.60 to 7.30 and 6.30 to 6.70.
In the same order, the values of `Cc1nc2ccc(-c3ccc4c(c3)CN(C(=O)N3CCN(c5cnccn5)CC3)CCO4)cc2[nH]1` [Compound 161, 7-(2-methyl-1H-benzimidazol-6-yl)-4-[(4-pyrazin-2-ylpiperazin-1-yl)carbonyl]-2,3,4,5-tetrahydro-1,4-benzoxazepine] are 6.15 to 6.60 and 6.30 to 6.70.
On the same counts, the results for `Cc1nc2ccc(-c3ccc4c(c3)CN(C(=O)N3CCC(c5noc(C)n5)CC3)CCO4)cc2[nH]1` [Compound 162, 7-(2-methyl-1H-benzimidazol-6-yl)-4-{[4-(5-methyl-1,2,4-oxadiazol-3-yl)piperidin-1-yl]carbonyl}-2,3,4,5-tetrahydro-1,4-benzoxazepine] are 6.15 to 6.60 and 5.52 to 6.00.
As to `Cc1nc2ccc(-c3ccc4c(c3)CN(C(=O)N3CCC(c5noc(C6CC6)n5)CC3)CCO4)cc2[nH]1` [Compound 163, 4-{[4-(5-cyclopropyl-1,2,4-oxadiazol-3-yl)piperidin-1-yl]carbonyl}-7-(2-methyl-1H-benzimidazol-6-yl)-2,3,4,5-tetrahydro-1,4-benzoxazepine], the values for the pIC50 in assay [1] and in assay [2] were 6.15 to 6.60 and 5.52 to 6.00, respectively.
On the same counts, the results for `Cc1nc2ccc(-c3ccc4c(c3)CN(C(=O)N3CCN(c5ncccn5)CC3)CCO4)cc2[nH]1` [Compound 166, 7-(2-methyl-1H-benzimidazol-6-yl)-4-[(4-pyrimidin-2-ylpiperazin-1-yl)carbonyl]-2,3,4,5-tetrahydro-1,4-benzoxazepine] are 5.59 to 6.15 and 6.30 to 6.70.
In the same order, the values of `Cc1nc2ccc(-c3ccc4c(c3)CN(C(=O)N3CCCCCCC3)CCO4)cc2[nH]1` [Compound 167, 4-(azocan-1-ylcarbonyl)-7-(2-methyl-1H-benzimidazol-6-yl)-2,3,4,5-tetrahydro-1,4-benzoxazepine] are 5.59 to 6.15 and 5.52 to 6.00.
In the same order, the values of `Cc1nc2ccc(-c3ccc4c(c3)CN(C(=O)N3CCC(c5ccccc5)CC3)CCO4)cc2[nH]1` [Compound 170, 7-(2-methyl-1H-benzimidazol-6-yl)-4-[(4-phenylpiperidin-1-yl)carbonyl]-2,3,4,5-tetrahydro-1,4-benzoxazepine] are 6.60 to 7.30 and 5.52 to 6.00.
In the case of `Cc1nc2ccc(-c3ccc4c(c3)CN(C(=O)N3CCN(c5ccccn5)CC3)CCO4)cc2[nH]1` [Compound 172, 7-(2-methyl-1H-benzimidazol-6-yl)-4-[(4-pyridin-2-ylpiperazin-1-yl)carbonyl]-2,3,4,5-tetrahydro-1,4-benzoxazepine], the values for the pIC50 in assay [1] and in assay [2] were 5.59 to 6.15 and 6.30 to 6.70, respectively.
On the same counts, the results for `Cc1nc2ccc(-c3ccc4c(c3)CN(C(=O)N3CCN(c5ccccc5)CC3)CCO4)cc2[nH]1` [Compound 174, 7-(2-methyl-1H-benzimidazol-6-yl)-4-[(4-phenylpiperazin-1-yl)carbonyl]-2,3,4,5-tetrahydro-1,4-benzoxazepine] are 6.15 to 6.60 and 6.00 to 6.30.
On the same counts, the results for `Cc1nc2ccc(-c3ccc4c(c3)CN(C(=O)N3CCN(c5ccc(F)cc5)CC3)CCO4)cc2[nH]1` [Compound 175, 4-{[4-(4-fluorophenyl)piperazin-1-yl]carbonyl}-7-(2-methyl-1H-benzimidazol-6-yl)-2,3,4,5-tetrahydro-1,4-benzoxazepine] are 5.59 to 6.15 and 5.52 to 6.00.
On the same counts, the results for `Cc1nc2ccc(-c3ccc4c(c3)CN(C(=O)N3CCN(c5cccc(Cl)c5)CC3)CCO4)cc2[nH]1` [Compound 176, 4-{[4-(3-chlorophenyl)piperazin-1-yl]carbonyl}-7-(2-methyl-1H-benzimidazol-6-yl)-2,3,4,5-tetrahydro-1,4-benzoxazepine] are 6.60 to 7.30 and 5.52 to 6.00.
Consider `CCN(Cc1ccccc1)C(=O)N1CCOc2ccc(-c3ccc4nc(C)[nH]c4c3)cc2C1` [Compound 177, N-ethyl-7-(2-methyl-1H-benzimidazol-6-yl)-N-(phenylmethyl)-2,3-dihydro-1,4-benzoxazepine-4(5H)-carboxamide], for which the results for the pIC50 in assay [1] and in assay [2] were 6.60 to 7.30 and 6.30 to 6.70, respectively.
Consider `O=C(N1CCOc2ccc(-c3cnc4nc[nH]c4c3)cc2C1)N1[C@@H]2CC[C@H]1C[C@](O)(C(F)(F)F)C2` [Compound 178, 8-{[7-(1H-imidazo[4,5-b]pyridin-6-yl)-2,3-dihydro-1,4-benzoxazepin-4(5H)-yl]carbonyl}-3-(trifluoromethyl)-8-azabicyclo[3.2.1]octan-3-(endo)-ol], for which the pIC50 in assay [1] was 6.60 to 7.30; in assay [2], 6.30 to 6.70.
For `CCNc1nc2ncc(-c3ccc4c(c3)CN(C(=O)N3[C@@H]5CC[C@H]3C[C@](O)(C(F)(F)F)C5)CCO4)cc2[nH]1` [Compound 179, 8-({7-[2-(ethylamino)-1H-imidazo[4,5-b]pyridin-6-yl]-2,3-dihydro-1,4-benzoxazepin-4(5H)-yl}carbonyl)-3-(trifluoromethyl)-8-azabicyclo[3.2.1]octan-3-(endo)-ol], the pIC50 is no less than 7.30 in assay [1] and no less than 7.12 in assay [2].
Take `CS(=O)(=O)Nc1cc(-c2ccc3c(c2)CN(C(=O)N2C4CCC2CC(O)(C(F)(F)F)C4)CCO3)cnc1Cl` (centres unmarked) [Compound 181, N-[2-chloro-5-(4-{[3-hydroxy-3-(trifluoromethyl)-8-azabicyclo[3.2.1]oct-8-yl]carbonyl}-2,3,4,5-tetrahydro-1,4-benzoxazepin-7-yl)pyridin-3-yl]methanesulfonamide]: the pIC50 in assay [1] was no less than 7.30; in assay [2] it was no less than 7.12.
